Molecular target: T1, TLR8 (Homo sapiens, UniProt Q9NR97)
T1 sequence (Q9NR97 27-1041): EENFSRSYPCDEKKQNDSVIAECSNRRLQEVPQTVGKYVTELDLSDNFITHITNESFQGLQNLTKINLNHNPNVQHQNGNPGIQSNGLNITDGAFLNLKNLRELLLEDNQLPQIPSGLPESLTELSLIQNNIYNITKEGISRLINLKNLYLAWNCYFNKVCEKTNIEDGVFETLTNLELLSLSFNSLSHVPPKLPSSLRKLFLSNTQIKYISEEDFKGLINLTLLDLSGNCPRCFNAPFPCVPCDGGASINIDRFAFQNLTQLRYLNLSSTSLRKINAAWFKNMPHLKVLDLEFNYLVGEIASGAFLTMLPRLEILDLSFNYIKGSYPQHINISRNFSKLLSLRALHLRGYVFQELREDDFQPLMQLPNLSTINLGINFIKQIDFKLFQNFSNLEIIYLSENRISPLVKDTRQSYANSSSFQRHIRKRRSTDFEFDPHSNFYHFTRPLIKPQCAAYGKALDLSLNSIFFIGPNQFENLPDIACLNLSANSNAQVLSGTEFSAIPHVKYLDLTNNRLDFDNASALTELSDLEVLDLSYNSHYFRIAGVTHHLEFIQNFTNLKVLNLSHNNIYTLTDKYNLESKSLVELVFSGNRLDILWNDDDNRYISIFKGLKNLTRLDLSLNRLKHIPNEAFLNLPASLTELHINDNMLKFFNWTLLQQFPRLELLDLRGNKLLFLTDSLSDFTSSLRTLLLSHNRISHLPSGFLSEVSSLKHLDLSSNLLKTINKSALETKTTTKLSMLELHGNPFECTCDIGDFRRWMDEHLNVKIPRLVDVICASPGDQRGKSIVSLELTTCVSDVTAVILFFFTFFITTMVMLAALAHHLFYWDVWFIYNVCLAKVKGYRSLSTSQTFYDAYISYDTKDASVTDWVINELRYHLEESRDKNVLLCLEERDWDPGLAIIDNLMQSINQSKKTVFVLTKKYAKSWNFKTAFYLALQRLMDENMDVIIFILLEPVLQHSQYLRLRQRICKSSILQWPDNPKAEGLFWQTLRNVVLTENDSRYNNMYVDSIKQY
Assay: huPBMC TLR8 Antagonist IL-6 TR-FRET Assay
Assay type: cell-based
Set-up: Fresh blood was collected from normal human donors; endogenous in cells; host or cells: human PBMCs from fresh donor blood
Conditions: human PBMCs stimulated with ssRNA40 1 μg/ml (DOTAP), 14-16 hrs; IL-6 TR-FRET read-out
Procedure: Compounds were generally serially diluted (1/3) in DMSO and plated on sterile 384 well tissue culture plates and stored until ready for use. Each ten-point dilution was typically plated in triplicate in parallel rows.
Fresh blood was collected from normal human donors underwritten informed consent in heparinized syringes on the morning of the assay. The blood was diluted in RPMI-1640 medium and the white blood cells were separated from red blood cells by centrifugation (800 g 15′ 0 acceleration, 0 brake) on a Ficoll cushion. Peripheral blood mononuclear cells (PBMCs) were separated from platelets by a series of low-speed centrifugations (1000RPM 10′) in PBS+5% HI—FBS and 1 mM EDTA. Purified PBMCs were re-suspended in assay medium (RPMI-1640 w Glutamax (Invitrogen) supplemented with 5% HI—FBS, 10 mM HEPES, 50 uM β-mercaptoethanol, and 100 mG/L penicillin/streptomycin cocktail). Viable PBMCs were counted on a hemacytometer and kept on ice until ready for plating.
A 4× concentration (4 ug/ml or 40 ug/ml for TLR8 or TLR7 assays, respectively) of the TLR7/8 agonist ssRNA40 (IDT) was complexed with 10% DOTAP (Roche) in assay medium for 30 min prior to addition to the PBMC suspension (5 million cells/ml). After addition, the final concentration of ssRNA40 in the TLR7/8 stimulated PBMC suspension was 1 μg/ml for TLR8 assay, and 10 μg/mL for the TLR7 assay. The final DOTAP concentration was 2.5%. Diluted PBMCs (5 million cells/ml) were treated with 4×TLR9 agonist ODN2216 (Invivogen). Final concentration of ODN2216 in TLR9 stimulated PBMC suspension was 0.3 μM.
Agonist stimulated PBMCs were plated on the compound treated 384 well plates at 150,000 cells/well. Un-stimulated PBMCs were plated as controls on each plate. Plating volume was 40 μL per well. DMSO concentration in each well was 0.25%.
A separate plate, without compounds, with titrations of ssRNA40 and ODN2216 was included in every assay to measure agonist response of each donor's PBMC prep. Assay plates were placed in a tissue culture incubator (37° C., 5% CO2) for 14-16 hrs. After this incubation, the plates were centrifuged and stored at −20° C. until they were assayed.
IL-6 TR-FRET Assay for TLR8 activity: • 1) Cisbio Human IL-6 kit, 20,000 tests (62TNFPEC), and GNF High-Base TC 384 well plates (cat #789163G) were used; • 2) the Anti-TIL-6 Cryptate conjugate and the Anti-IL-6 XL665 conjugate were diluted 1:20 in Reconstitution Buffer; • 3) a 1:1 mixture of 3 μl/well Anti-IL-6 Cryptate conjugate and 3 μl/well Anti-IL-6 XL665 conjugate was prepared; • 4) 6 μl/well HTRF dilution mastermix was added to 6 μl of transferred supernatant samples in proxiplates; • 5) The plates were incubated for 3 hrs at rt in the dark; and • 6) the levels of IL-6 production was measured using an Envision plate reader (665 nm (emmission)/590 nm (excitation)) with HTRF settings and ratiometric read-out: (XL665 emission/Eu Cryptate emission)×10,000. IFNα2b AlphaLISA Assay for TLR7 or TLR9 activity After thawing the assay plates, 6 μL of supernatant samples were transferred to a low-volume AlphaPlate 384SW (Perkin-Elmer). The concentration of IFNα in supernatants was measured using the IFNα2b AlphaLISA Assay (Perkin-Elmer: AL297F). 3 μL of IFNα acceptor beads/biotinylated antibody solution was added first, using laboratory automation. After an hour incubation, […] of streptavidin […] bead solution was added. The plates containing this mixture were incubated in the dark for an hour and read on an appropriate plate reader at reading parameters set by the manufacturer. (Envision, EnSpire: Perkin-Elmer).

Row | IC50 [nM] | Compound
1 | 622 | COc1ccc(-c2cc(N3CCc4c(c(C)nn4CC45CCC(N)(CC4)CC5)C3)ccn2)cc1 [compound 89, 4-((5-(2-(4-methoxyphenyl)pyridin-4-yl)-3-methyl-4,5,6,7-tetrahydro-1H-pyrazolo[4,3-c]pyridin-1-yl)methyl)bicyclo[2.2.2]octan-1-amine]
2 | 1010 | Cc1ccc(-c2cc(N3CCc4c(c(C)nn4CC45CCC(N)(CC4)CC5)C3)ccn2)cc1 [compound 90, 4-((3-methyl-5-(2-(p-tolyl)pyridin-4-yl)-4,5,6,7-tetrahydro-1H-pyrazolo[4,3-c]pyridin-1-yl)methyl)bicyclo[2.2.2]octan-1-amine]
3 | 983 | Cc1cc(N2CCc3c(c(C)nn3CC34CCC(N)(CC3)CC4)C2)cc(-c2ccccc2)n1 [compound 93, 4-((3-methyl-5-(2-methyl-6-phenylpyridin-4-yl)-4,5,6,7-tetrahydro-1H-pyrazolo[4,3-c]pyridin-1-yl)methyl)bicyclo[2.2.2]octan-1-amine]
4 | 1110 | Cc1nn(CC23CCC(N)(CC2)CC3)c2c1CN(c1ccnc(-c3ccccn3)c1)CC2 [compound 94, 4-((5-([2,2'-bipyridin]-4-yl)-3-methyl-4,5,6,7-tetrahydro-1H-pyrazolo[4,3-c]pyridin-1-yl)methyl)bicyclo[2.2.2]octan-1-amine]
5 | 85 | Cc1cc(N2CCc3c(c(C)nn3CC34CCC(N5CCCCC5)(CC3)CO4)C2)c2cnn(C)c2n1 [compound 95, 5-(1,6-dimethyl-1H-pyrazolo[3,4-b]pyridin-4-yl)-3-methyl-1-((4-(piperidin-1-yl)-2-oxabicyclo[2.2.2]octan-1-yl)methyl)-4,5,6,7-tetrahydro-1H-pyrazolo[4,3-c]pyridine]
6 | 775 | COCC(C)NC12CCC(Cn3nc(C)c4c3CCN(c3cc(C)nc5c3cnn5C)C4)(CC1)CC2 (stereo not drawn) [compound 96, 4-((5-(1,6-dimethyl-1H-pyrazolo[3,4-b]pyridin-4-yl)-3-methyl-4,5,6,7-tetrahydro-1H-pyrazolo[4,3-c]pyridin-1-yl)methyl)-N-(1-methoxypropan-2-yl)bicyclo[2.2.2]octan-1-amine]
7 | 89 | CCN(C)C12CCC(Cn3nc(C)c4c3CCN(c3cc(C)nc5c3cnn5C)C4)(CC1)CC2 [compound 97, 4-((5-(1,6-dimethyl-1H-pyrazolo[3,4-b]pyridin-4-yl)-3-methyl-4,5,6,7-tetrahydro-1H-pyrazolo[4,3-c]pyridin-1-yl)methyl)-N-ethyl-N-methylbicyclo[2.2.2]octan-1-amine]
8 | 718 | Cc1cc(N2CCc3c(c(C)nn3CC34CCC(N(C)C)(CC3)CO4)C2)c2cnn(C)c2n1 [compound 98, 1-((5-(1,6-dimethyl-1H-pyrazolo[3,4-b]pyridin-4-yl)-3-methyl-4,5,6,7-tetrahydro-1H-pyrazolo[4,3-c]pyridin-1-yl)methyl)-N,N-dimethyl-2-oxabicyclo[2.2.2]octan-4-amine]
9 | 1420 | Cc1nn(CC23CCC(N)(CC2)CC3)c2c1CN(c1nc(Cl)nc3c1COC3)CC2 [compound 103, 4-((5-(2-chloro-5,7-dihydrofuro[3,4-d]pyrimidin-4-yl)-3-methyl-4,5,6,7-tetrahydro-1H-pyrazolo[4,3-c]pyridin-1-yl)methyl)bicyclo[2.2.2]octan-1-amine]
10 | 922 | Cc1cc(N2CCc3c(c(C)nn3CC34CCC(NC(=O)C5COCCN5C)(CC3)CC4)C2)c2cnn(C)c2n1 (stereo not drawn) [compound 122, N-(4-((5-(1,6-dimethyl-1H-pyrazolo[3,4-b]pyridin-4-yl)-3-methyl-4,5,6,7-tetrahydro-1H-pyrazolo[4,3-c]pyridin-1-yl)methyl)bicyclo[2.2.2]octan-1-yl)-4-methylmorpholine-3-carboxamide]
11 | 695 | Cc1nc(N2CCc3c(c(C)nn3CC34CCC(N)(CC3)CC4)C2)c2cnn(C)c2n1 [compound 149, 4-((5-(1,6-dimethyl-1H-pyrazolo[3,4-d]pyrimidin-4-yl)-3-methyl-4,5,6,7-tetrahydro-1H-pyrazolo[4,3-c]pyridin-1-yl)methyl)bicyclo[2.2.2]octan-1-amine]
12 | 4200 | CCn1ncc2c(N3CCc4c(c(C)nn4CC45CCC(N)(CC4)CC5)C3)cc(C)nc21 [compound 150, 4-((5-(1-ethyl-6-methyl-1H-pyrazolo[3,4-b]pyridin-4-yl)-3-methyl-4,5,6,7-tetrahydro-1H-pyrazolo[4,3-c]pyridin-1-yl)methyl)bicyclo[2.2.2]octan-1-amine]

Reference: patent US20240376099A1, “COMPOUNDS AND COMPOSITIONS AS INHIBITORS OF ENDOSOMAL TOLL-LIKE RECEPTORS” (Novartis AG, priority 2016, published 2024)
